ChEMBL document CHEMBL1130985, “A novel super-potent neurokinin A receptor antagonist containing dehydroalanine” (Bioorg Med Chem Lett, 1998)
Numbered stars: 1 amine (or outer) side, 2 acyl side, 3 side chain; on linkers, the order of the positions; unused ones are H or OH. Bridge positions count the residues as written; N and C are the ends. Square brackets hold non-standard residues; d marks the D form. Peptide text beside a SMILES is read from it. X1 = O=C([C@@H](CN[*:1])CSCC1O[C@@H](O)C(O)[C@H](O)[C@H]1O)[*:2]; Dap = NC[C@H](N)C(=O)O; Dha = C=C(N)C(=O)O

How the values were obtained:
[1] = molecular target: T1, Substance-K receptor (Rattus norvegicus) (UniProt P16610); assay: Antagonistic activity against Tachykinin receptor 2 in rat vas deferens at 30 nM concentration; assay type: functional
T1 sequence (whole entry): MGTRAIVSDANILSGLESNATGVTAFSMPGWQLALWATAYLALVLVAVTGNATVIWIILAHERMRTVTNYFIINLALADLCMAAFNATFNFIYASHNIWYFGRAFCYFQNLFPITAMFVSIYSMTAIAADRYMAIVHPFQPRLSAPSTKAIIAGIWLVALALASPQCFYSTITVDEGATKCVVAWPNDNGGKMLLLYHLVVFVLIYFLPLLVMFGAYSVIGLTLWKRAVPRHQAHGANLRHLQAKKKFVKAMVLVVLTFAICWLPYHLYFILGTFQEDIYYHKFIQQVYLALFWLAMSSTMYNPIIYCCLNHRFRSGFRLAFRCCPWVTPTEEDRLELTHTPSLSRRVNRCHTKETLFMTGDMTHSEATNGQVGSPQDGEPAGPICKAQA

Substance-K receptor = molecular target: T2, Substance-K receptor (Rattus norvegicus, UniProt P16610); assay: pA2 value against Tachykinin receptor 2 in rat vas deferens; assay type: tissue-based; conditions: for Kb: read-out: pA2 (converted)
T2 sequence (P16610 whole entry): T1 sequence (whole entry)

[2] = molecular target: T1, Substance-K receptor (Rattus norvegicus); assay: Antagonistic activity against Tachykinin receptor 2 in rat vas deferens at 100 nM concentration; assay type: functional
[3] = molecular target: T1, Substance-K receptor (Rattus norvegicus); assay: Antagonistic activity against Tachykinin receptor 2 in rat vas deferens at 10 nM concentration; assay type: functional

Compound | Emax [1] [%] | Kb (Substance-K receptor) [nM] | Emax [2] [%] | Emax [3] [%] | pA2 (Substance-K receptor)
CSCC[C@@H]1NC(=O)[C@H](CC(C)C)NC(=O)[C@@H]2CNC(=O)C[C@H](NC1=O)C(=O)N[C@@H](Cc1c[nH]c3ccccc13)C(=O)N[C@@H](Cc1ccccc1)C(=O)N2 (cyclo(DWF[Dap]LM); lactam 1-4) | 96 | 6.17 | 94 | 95 | 
C=C1NC(=O)[C@H](CC(C)C)NC(=O)[C@@H]2CNC(=O)C[C@H](NC1=O)C(=O)N[C@@H](Cc1c[nH]c3ccccc13)C(=O)N[C@@H](Cc1ccccc1)C(=O)N2 (cyclo(DWF[Dap]L[Dha]); lactam 1-4) |  |  |  |  | 9.65
CC(C)C[C@@H]1NC(=O)[C@@H]2CNC(=O)C[C@H](NC(=O)[C@H](CSCC3O[C@@H](O)C(O)[C@H](O)[C@H]3O)CNC1=O)C(=O)N[C@@H](Cc1c[nH]c3ccccc13)C(=O)N[C@@H](Cc1ccccc1)C(=O)N2 (some centres undefined) (cyclo(DWF[Dap]L[X1]); lactam 1-4) | 99 | 5.62 | 92 | 96 | 
